Results taken from patent publication US20110212892A1, “AGENT FOR TREATMENT OF DIABETES” (Dainippon Sumitomo Pharma Co., Ltd., priority 2008, published 2011).

Legend:
Format in all cases: in vivo
db/db mice [1] = test: HbA1c change Day 1 to Day 15 in db/db mice, Compound A and metformin (Example 1-3); conditions: Compound A 30 mg/kg and/or metformin 300 mg/kg by gavage once a day for 14 days
Experimental: (§1) The antidiabetic action resulting from the combination of an insulin-sensitizing drug and a biguanide was studied by using db/db mice (8 weeks old, male, CLEA Japan, Inc.). The db/db mice were allocated to 4 groups (8 mice/group). Among the 4 groups, a vehicle (0.5% methylcellulose solution) was administered to Group 1 by gavage once a day for 14 days from the day of grouping (Day 1); Compound A (30 mg/kg) was administered to Group 2, metformin (300 mg/kg) was administered to Group 3, and Compound A (30 mg/kg) and metformin (300 mg/kg) were administered to Group 4 under the same condition as Group 1. Blood glucose and HbAlc levels were measured on Day 11 and Day 15, respectively.

db/db mice [2] = test: Blood glucose level on Day 11 in db/db mice, Compound A and metformin (Example 1-3); conditions: Compound A 30 mg/kg and/or metformin 300 mg/kg by gavage once a day for 14 days; for Blood glucose level: Day 11, mean ± SD, n = 8, in mg/dL (unit assumed)
Experimental: as §1

db/db mice [3] = test: Oral glucose tolerance test on Day 28 in db/db mice given agents in feed (Example 1-2); conditions: feed with 0.02 (w/w) % Compound A and/or 0.06 (w/w) % sitagliptin; for Blood glucose level after the glucose load on Day 28 / Area under the curve of blood glucose level after the glucose load on Day 28: OGTT 2 g/kg glucose, mean ± SD, n = 8; for Blood glucose level after the glucose load on Day 28: fasted overnight; for Area under the curve of blood glucose level in oral glucose tolerance test versus control (in words): Day 28
Text: (§2) The antidiabetic action resulting from the combination of an insulin secretagogue (DPP-4 inhibitor) and Compound A was studied by using db/db mice (8 weeks old, male, CLEA Japan, Inc.). The db/db mice were allocated to 4 groups (8 mice/group). The mice in Group 1 were given powdered feed (control), Group 2 were given powdered feed containing 0.02 (w/w) % of Compound A, Group 3 were given powdered feed containing 0.06 (w/w) % of sitagliptin, and Group 4 were given powdered feed containing 0.02 (w/w) % of Compound A and 0.06 (w/w) % of sitagliptin. In addition, the powdered feed mentioned-above were all the same (i.e. trade name: CE-2, CLEA Japan, Inc.). An oral glucose tolerance test was performed on Day 28. To be more specific, on the day before the test, the mice were fasted overnight; and on the test day, 2 g/kg of glucose was administered by gavage to study the changes in blood glucose levels. Glycosylated hemoglobin (hereinafter, referred to as “HbAlc”) was measured on Day 33.

db/db mice [4] = test: HbA1c change to Day 33 in db/db mice given agents in feed (Example 1-2); conditions: start of experiment to Day 33, feed with 0.02 (w/w) % Compound A and/or 0.06 (w/w) % sitagliptin; for Amounts of change in HbA1c before and after treatment: mean ± SD, n = 8
Text: as §2

C57BL/KsJ-db/db mice [5] = test: Blood insulin after glibenclamide administration in db/db mice repeatedly given Compound A (Example 1-1); conditions: vehicle or Compound A 30 mg/kg once a day 15 days, next day vehicle or glibenclamide 10 mg/kg by gavage, mean ± SD, n = 8
Experimental: The antidiabetic action resulting from the combination of an insulin secretagogue (SU drug) and Compound A was studied by using C57BL/KsJ-db/db mice (hereinafter, referred to as “db/db mice”) (9 weeks old, male, CLEA Japan, Inc.) as a model of type 2 diabetes. The db/db mice were allocated to 4 groups (8 mice/group), and each group was put into a cage provided with feed. Among the 4 groups, a vehicle (0.5% methylcellulose solution) was administered to Groups 1 and 2 by gavage once a day for 15 days, and Compound A (30 mg/kg) was administered to Groups 3 and 4 under the same condition as Groups 1 and 2. On the next day after the last administration, the vehicle was administered to Groups 1 and 3, and glibenclamide (10 mg/kg) was administered to Groups 2 and 4, both by gavage; then the feed were removed from the cages and the changes in blood glucose levels were studied in each group.
As a result, blood insulin level was higher in Group 4 (i.e. repeatedly administered with Compound A and then with glibenclamide) than in Groups 1 and 2 (i.e. repeatedly administered with the vehicle).

C57BL/KsJ-db/db mice [6] = test: Blood glucose after glibenclamide administration in db/db mice repeatedly given Compound A (Example 1-1); conditions: for Blood glucose level after the glibenclamide administration (relative value when blood glucose level at 0 hr is 100%) / Area under the curve of blood glucose level after the glibenclamide administration (relative value when blood glucose level at 0 hr is 100%): vehicle or Compound A 30 mg/kg once a day 15 days, next day vehicle or glibenclamide 10 mg/kg by gavage, n = 8; for Blood glucose level after the glibenclamide administration (relative value when blood glucose level at 0 hr is 100%): feed removed; for Blood glucose level after the glibenclamide administration (relative value when blood glucose level at 0 hr is 100%) / Blood glucose level before the glibenclamide administration / Area under the curve of blood glucose level after the glibenclamide administration (relative value when blood glucose level at 0 hr is 100%): mean ± SD; for Blood glucose level before the glibenclamide administration: Compound A 30 mg/kg by gavage once a day for 15 days, next day, before glibenclamide/vehicle, n = 8, 30 mg/kg; for Decrease of blood glucose levels after glibenclamide/vehicle administration (in words): vehicle or Compound A 30 mg/kg 15 days, then vehicle or glibenclamide 10 mg/kg
Experimental: The antidiabetic action resulting from the combination of an insulin secretagogue (SU drug) and Compound A was studied by using C57BL/KsJ-db/db mice (hereinafter, referred to as “db/db mice”) (9 weeks old, male, CLEA Japan, Inc.) as a model of type 2 diabetes. The db/db mice were allocated to 4 groups (8 mice/group), and each group was put into a cage provided with feed. Among the 4 groups, a vehicle (0.5% methylcellulose solution) was administered to Groups 1 and 2 by gavage once a day for 15 days, and Compound A (30 mg/kg) was administered to Groups 3 and 4 under the same condition as Groups 1 and 2. On the next day after the last administration, the vehicle was administered to Groups 1 and 3, and glibenclamide (10 mg/kg) was administered to Groups 2 and 4, both by gavage; then the feed were removed from the cages and the changes in blood glucose levels were studied in each group. […]

SMILES	Amount of change in HbA1c (db/db mice [1])	Blood glucose level (Day 11) and amount of HbA1c change (Day 1 to Day 15); single agents versus vehicle, combination versus single agents (in words) (db/db mice [2])	Blood glucose level (db/db mice [2])	Blood glucose level after the glucose load on Day 28 (db/db mice [3]; 0 min) [mg/dL]	Blood glucose level after the glucose load on Day 28 (db/db mice [3]; 10 min) [mg/dL]	Blood glucose level after the glucose load on Day 28 (db/db mice [3]; 30 min) [mg/dL]	Blood glucose level after the glucose load on Day 28 (db/db mice [3]; 60 min) [mg/dL]	Blood glucose level after the glucose load on Day 28 (db/db mice [3]; 90 min) [mg/dL]	Blood glucose level after the glucose load on Day 28 (db/db mice [3]; 120 min) [mg/dL]	Area under the curve of blood glucose level in oral glucose tolerance test versus control (in words) (db/db mice [3])	Area under the curve of blood glucose level after the glucose load on Day 28 (db/db mice [3]) [mg·min/dL]	Change in HbA1c versus control (in words) (db/db mice [4])	Amounts of change in HbA1c before and after treatment (db/db mice [4]) [%]	Blood insulin level after the glibenclamide administration (relative value when insulin level at 0 hr is 100%) (C57BL/KsJ-db/db mice [5]; 1 hr) [%]	Blood insulin level after the glibenclamide administration (relative value when insulin level at 0 hr is 100%) (C57BL/KsJ-db/db mice [5]; 2 hr) [%]	Area under the curve of blood insulin level after the glibenclamide administration (relative value when insulin level at 0 hr is 100%) (C57BL/KsJ-db/db mice [5]) [% · hr]	Blood glucose level after the glibenclamide administration (relative value when blood glucose level at 0 hr is 100%) (C57BL/KsJ-db/db mice [6]; 1 hr) [%]	Blood glucose level after the glibenclamide administration (relative value when blood glucose level at 0 hr is 100%) (C57BL/KsJ-db/db mice [6]; 2 hr) [%]	Blood glucose level after the glibenclamide administration (relative value when blood glucose level at 0 hr is 100%) (C57BL/KsJ-db/db mice [6]; 4 hr) [%]	Blood glucose level after the glibenclamide administration (relative value when blood glucose level at 0 hr is 100%) (C57BL/KsJ-db/db mice [6]; 6 hr) [%]	also measured
Cc1ccc(C(=O)c2cccn2C/C=C/c2ccc(COC(C)(C)C(=O)O)cc2)cc1 [Compound A, 2-methyl-2-[(4-{(1E)-3-[2-(4-methylbenzoyl)-1H-pyrrol-1-yl]prop-1-en-1-yl}benzyl)oxy]propanoic acid]	0.93 ± 0.28	significant decrease of blood glucose level and amount of HbAlc change	321.9 ± 43.5	146 ± 33	500 ± 62	633 ± 57	566 ± 41	457 ± 74	412 ± 82	significant difference was not observed	59692 ± 4741	A difference was not observed	1.28 ± 0.53	55.9 ± 15.8	61.6 ± 17.3	136.8 ± 17.7	100.2 ± 10.2	96.1 ± 14.2	93.8 ± 15.9	93.6 ± 14.1	Blood glucose level before the glibenclamide administration (C57BL/KsJ-db/db mice [6]; group later given glibenclamide): 323.4 ± 75.7 mg/dL; Blood glucose level before the glibenclamide administration (C57BL/KsJ-db/db mice [6]; group later given vehicle): 332.1 ± 90.8 mg/dL; Decrease of blood glucose levels after glibenclamide/vehicle administration (in words) (C57BL/KsJ-db/db mice [6]): did not; Area under the curve of blood glucose level after the glibenclamide administration (relative value when blood glucose level at 0 hr is 100%) (C57BL/KsJ-db/db mice [6]): 575.6 ± 73.0 % · hr
COc1ccc(Cl)cc1C(=O)NCCc1ccc(S(=O)(=O)NC(=O)NC2CCCCC2)cc1 [Glibenclamide, glibenclamide, reference compound]	–	–	–	–	–	–	–	–	–	–	–	–	–	75.1 ± 25.1	83.3 ± 21.4	166.7 ± 31.5	96.2 ± 7.7	91.3 ± 5.9	82.9 ± 12.7	80.9 ± 12.1	Decrease of blood glucose levels after glibenclamide/vehicle administration (in words) (C57BL/KsJ-db/db mice [6]): no decrease in blood glucose levels; Area under the curve of blood glucose level after the glibenclamide administration (relative value when blood glucose level at 0 hr is 100%) (C57BL/KsJ-db/db mice [6]): 530.0 ± 35.1 % · hr
CN(C)C(=N)N=C(N)N [Metformin, metformin, reference compound]	1.09 ± 0.16	significant decrease of blood glucose level and amount of HbAlc change	323.5 ± 66.3	–	–	–	–	–	–	–	–	–	–	–	–	–	–	–	–	–	–
N[C@@H](CC(=O)N1CCn2c(nnc2C(F)(F)F)C1)Cc1cc(F)c(F)cc1F [Sitagliptin, sitagliptin, reference compound]	–	–	–	167 ± 15	542 ± 81	588 ± 125	510 ± 95	455 ± 100	408 ± 107	significant difference was not observed	57680 ± 10679	A difference was not observed	1.68 ± 0.51	–	–	–	–	–	–	–	–
